We go through two compounds from ChEMBL document CHEMBL2203000, “Discovery of AC710, a Globally Selective Inhibitor of Platelet-Derived Growth Factor Receptor-Family Kinases” (ACS Med Chem Lett, 2012).

Data set [1] deals with Rattus norvegicus. Nature of the data set: (§1) Oral bioavailability in Sprague-Dawley rat plasma at 10 mg/kg by LC-MS/MS analysis. In kind it is ADME, organism-based. The following applies: in vivo.
The test system of data set [2] is Rattus norvegicus. The data set can be described thus: (§2) AUC in Sprague-Dawley rat plasma at 10 mg/kg, po by LC-MS/MS analysis. It is filed as ADME, organism-based. Details: dose 10 mg/kg, route oral; call rule not given here. The following applies: in vivo.
The target in data set [3] is T1, Platelet-derived growth factor receptor beta (Homo sapiens, UniProt P09619). Nature of the data set: Inhibition of PDGFRbeta phosphorylation in human MG63 cells. It is filed as cell-based, MG-63.
The nature of data set [4]: as §1. It is filed as ADME, organism-based. As to conditions: Sprague-Dawley, plasma.
In the next data set the target is Cytochrome P450 2C19 (Homo sapiens, UniProt P33261). The data set can be described thus: Inhibition of CYP2C19. It is filed as ADME.
Sequence of Cytochrome P450 2C19 (P33261 whole entry): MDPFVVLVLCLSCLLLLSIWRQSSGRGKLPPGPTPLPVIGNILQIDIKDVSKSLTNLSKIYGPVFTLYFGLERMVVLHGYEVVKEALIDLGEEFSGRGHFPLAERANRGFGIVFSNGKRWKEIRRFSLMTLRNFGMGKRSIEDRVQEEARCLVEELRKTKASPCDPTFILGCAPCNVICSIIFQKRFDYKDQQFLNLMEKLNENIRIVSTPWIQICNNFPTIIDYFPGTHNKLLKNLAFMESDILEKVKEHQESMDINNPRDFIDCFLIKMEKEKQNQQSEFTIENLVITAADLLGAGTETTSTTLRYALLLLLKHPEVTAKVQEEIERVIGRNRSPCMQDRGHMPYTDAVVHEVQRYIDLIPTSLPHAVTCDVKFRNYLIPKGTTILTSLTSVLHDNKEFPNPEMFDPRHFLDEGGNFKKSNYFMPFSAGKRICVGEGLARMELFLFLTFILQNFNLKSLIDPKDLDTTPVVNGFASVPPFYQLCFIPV
In data set [5] the target is T2, Macrophage colony-stimulating factor 1 receptor (Homo sapiens, UniProt P07333). The data set can be described thus: Binding affinity to CSF1R expressed in HEK-293 cells after 1 hr. In kind it is cell-based, HEK293.
T2 sequence (P07333 whole entry): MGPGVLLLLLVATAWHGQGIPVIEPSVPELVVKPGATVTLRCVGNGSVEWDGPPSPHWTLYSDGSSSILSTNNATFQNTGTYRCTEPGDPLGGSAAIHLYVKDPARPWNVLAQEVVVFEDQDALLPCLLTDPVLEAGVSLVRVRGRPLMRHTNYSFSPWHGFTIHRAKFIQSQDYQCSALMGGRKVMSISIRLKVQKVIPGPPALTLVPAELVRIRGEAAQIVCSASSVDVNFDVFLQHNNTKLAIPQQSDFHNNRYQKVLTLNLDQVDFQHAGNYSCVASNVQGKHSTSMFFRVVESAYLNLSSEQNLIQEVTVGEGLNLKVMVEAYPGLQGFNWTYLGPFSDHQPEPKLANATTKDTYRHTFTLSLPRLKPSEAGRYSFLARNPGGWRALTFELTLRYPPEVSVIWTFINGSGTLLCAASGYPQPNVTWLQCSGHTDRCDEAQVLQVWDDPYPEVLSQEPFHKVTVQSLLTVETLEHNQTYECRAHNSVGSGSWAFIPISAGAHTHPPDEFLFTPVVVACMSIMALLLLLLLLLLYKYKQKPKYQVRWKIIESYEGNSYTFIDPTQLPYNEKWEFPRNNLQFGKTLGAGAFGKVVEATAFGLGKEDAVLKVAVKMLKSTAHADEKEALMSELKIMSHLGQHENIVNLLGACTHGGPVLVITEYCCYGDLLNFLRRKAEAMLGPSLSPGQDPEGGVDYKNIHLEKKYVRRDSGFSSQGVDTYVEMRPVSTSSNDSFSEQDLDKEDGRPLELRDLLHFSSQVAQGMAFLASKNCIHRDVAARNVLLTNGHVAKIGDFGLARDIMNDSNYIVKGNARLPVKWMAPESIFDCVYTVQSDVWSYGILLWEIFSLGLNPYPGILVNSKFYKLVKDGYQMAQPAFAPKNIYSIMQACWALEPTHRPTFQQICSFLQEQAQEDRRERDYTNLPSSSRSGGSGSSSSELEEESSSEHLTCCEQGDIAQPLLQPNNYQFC
Data set [6] has as its target T3, Receptor-type tyrosine-protein kinase FLT3 (Homo sapiens, UniProt P36888).
T3 sequence (P36888 whole entry): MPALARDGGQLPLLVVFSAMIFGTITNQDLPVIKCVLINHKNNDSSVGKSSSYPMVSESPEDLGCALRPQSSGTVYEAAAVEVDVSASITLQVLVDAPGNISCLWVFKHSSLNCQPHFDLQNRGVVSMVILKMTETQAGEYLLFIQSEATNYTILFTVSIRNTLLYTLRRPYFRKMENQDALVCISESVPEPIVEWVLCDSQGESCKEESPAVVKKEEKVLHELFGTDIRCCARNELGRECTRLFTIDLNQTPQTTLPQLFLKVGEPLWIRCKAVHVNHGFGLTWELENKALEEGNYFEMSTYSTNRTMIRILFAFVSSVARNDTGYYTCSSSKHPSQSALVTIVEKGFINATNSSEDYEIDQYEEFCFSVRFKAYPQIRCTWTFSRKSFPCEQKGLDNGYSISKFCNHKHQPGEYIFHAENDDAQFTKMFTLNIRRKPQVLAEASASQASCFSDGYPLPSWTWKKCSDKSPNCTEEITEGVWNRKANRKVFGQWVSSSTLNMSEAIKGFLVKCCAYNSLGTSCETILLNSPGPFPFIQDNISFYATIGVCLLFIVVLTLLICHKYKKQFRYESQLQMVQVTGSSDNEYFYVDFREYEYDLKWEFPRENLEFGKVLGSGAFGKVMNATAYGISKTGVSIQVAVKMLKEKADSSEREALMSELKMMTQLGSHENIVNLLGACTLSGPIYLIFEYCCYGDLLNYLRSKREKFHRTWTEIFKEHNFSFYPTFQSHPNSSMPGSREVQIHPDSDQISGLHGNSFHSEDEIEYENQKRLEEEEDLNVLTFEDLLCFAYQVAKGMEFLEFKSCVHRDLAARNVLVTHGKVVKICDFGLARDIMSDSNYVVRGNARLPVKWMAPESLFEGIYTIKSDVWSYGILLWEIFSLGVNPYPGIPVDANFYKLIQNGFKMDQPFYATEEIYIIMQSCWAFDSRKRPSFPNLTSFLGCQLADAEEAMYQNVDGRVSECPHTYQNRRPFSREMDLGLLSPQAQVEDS
The data set can be described thus: Inhibition of FLT3 phosphorylation in human MV4-11 cells. In kind it is cell-based.

For data set [7], the target named is T1, Platelet-derived growth factor receptor beta. The data set can be described thus: Binding affinity to PDGFRbeta expressed in HEK-293 cells. In kind it is cell-based, HEK293.
Target sequence in this assay (P09619 whole entry): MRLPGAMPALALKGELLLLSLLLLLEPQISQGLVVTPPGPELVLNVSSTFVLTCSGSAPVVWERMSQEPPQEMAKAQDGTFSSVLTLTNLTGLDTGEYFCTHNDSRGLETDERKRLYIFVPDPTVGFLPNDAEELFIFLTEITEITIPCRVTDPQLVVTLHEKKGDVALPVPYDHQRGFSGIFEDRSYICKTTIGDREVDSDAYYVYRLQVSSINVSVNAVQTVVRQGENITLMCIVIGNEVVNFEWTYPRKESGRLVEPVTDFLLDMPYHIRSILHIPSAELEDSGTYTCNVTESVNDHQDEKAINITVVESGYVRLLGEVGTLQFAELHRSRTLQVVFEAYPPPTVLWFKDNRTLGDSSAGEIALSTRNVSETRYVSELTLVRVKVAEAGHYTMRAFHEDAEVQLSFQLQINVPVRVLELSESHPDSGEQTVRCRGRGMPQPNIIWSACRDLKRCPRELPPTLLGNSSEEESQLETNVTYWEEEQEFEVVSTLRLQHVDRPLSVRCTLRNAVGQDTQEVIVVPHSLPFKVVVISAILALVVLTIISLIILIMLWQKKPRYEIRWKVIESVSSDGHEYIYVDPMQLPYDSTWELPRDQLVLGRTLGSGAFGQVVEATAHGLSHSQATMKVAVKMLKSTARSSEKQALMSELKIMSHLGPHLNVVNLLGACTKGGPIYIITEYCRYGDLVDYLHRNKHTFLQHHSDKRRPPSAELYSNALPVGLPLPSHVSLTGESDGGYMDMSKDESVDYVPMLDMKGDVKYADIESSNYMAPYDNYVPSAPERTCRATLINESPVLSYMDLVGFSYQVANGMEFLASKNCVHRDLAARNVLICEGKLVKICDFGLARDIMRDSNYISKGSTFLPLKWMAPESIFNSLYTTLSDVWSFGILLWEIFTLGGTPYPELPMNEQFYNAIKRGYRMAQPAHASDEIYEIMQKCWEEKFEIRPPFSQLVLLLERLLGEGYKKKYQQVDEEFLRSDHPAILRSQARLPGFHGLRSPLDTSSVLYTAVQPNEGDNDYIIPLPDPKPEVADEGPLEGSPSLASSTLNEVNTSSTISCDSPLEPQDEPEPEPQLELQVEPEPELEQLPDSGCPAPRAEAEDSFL
Data set [8] is described as follows: Antitumor activity against mouse M-NFS-60 cells xenografted in CD-1 nude mouse assessed as inhibition of tumor growth at 3 mg/kg, po measured after 4 of tumor implantation. As to conditions: read-out: TGI. In kind it is functional.
Data set [9] has as its target T2, Macrophage colony-stimulating factor 1 receptor. The data set can be described thus: Inhibition of M-CSF-induced […] -fussed CSF1R phosphorylation expressed in HEK293 cells after 2 hrs by sandwich ELISA. In kind it is cell-based. On the technique in general: ELISA stands for enzyme-linked immunosorbent assay.
Data set [10] has as its system Rattus norvegicus. Nature of the data set: Toxicity in rat assessed as diarrhea at 800 mg/kg administered for 7 days. It is filed as organism-based. Details: dose 800 mg/kg. The following applies: in vivo, 168 h.
Data set [11] has as its system Mus musculus. Nature of the data set: Toxicity in collagen-induced arthritis mouse assessed as body weight and body condition at 3 to 30 mg/kg for 15 days. It is filed as organism-based. Details: dose 3-30 mg/kg. The following applies: in vivo, 360 h.
In data set [12] the target is T4, Mast/stem cell growth factor receptor Kit (Homo sapiens, UniProt P10721). Nature of the data set: Inhibition of KIT phosphorylation in human H526 cells. It is filed as cell-based.
T4 sequence (P10721 whole entry): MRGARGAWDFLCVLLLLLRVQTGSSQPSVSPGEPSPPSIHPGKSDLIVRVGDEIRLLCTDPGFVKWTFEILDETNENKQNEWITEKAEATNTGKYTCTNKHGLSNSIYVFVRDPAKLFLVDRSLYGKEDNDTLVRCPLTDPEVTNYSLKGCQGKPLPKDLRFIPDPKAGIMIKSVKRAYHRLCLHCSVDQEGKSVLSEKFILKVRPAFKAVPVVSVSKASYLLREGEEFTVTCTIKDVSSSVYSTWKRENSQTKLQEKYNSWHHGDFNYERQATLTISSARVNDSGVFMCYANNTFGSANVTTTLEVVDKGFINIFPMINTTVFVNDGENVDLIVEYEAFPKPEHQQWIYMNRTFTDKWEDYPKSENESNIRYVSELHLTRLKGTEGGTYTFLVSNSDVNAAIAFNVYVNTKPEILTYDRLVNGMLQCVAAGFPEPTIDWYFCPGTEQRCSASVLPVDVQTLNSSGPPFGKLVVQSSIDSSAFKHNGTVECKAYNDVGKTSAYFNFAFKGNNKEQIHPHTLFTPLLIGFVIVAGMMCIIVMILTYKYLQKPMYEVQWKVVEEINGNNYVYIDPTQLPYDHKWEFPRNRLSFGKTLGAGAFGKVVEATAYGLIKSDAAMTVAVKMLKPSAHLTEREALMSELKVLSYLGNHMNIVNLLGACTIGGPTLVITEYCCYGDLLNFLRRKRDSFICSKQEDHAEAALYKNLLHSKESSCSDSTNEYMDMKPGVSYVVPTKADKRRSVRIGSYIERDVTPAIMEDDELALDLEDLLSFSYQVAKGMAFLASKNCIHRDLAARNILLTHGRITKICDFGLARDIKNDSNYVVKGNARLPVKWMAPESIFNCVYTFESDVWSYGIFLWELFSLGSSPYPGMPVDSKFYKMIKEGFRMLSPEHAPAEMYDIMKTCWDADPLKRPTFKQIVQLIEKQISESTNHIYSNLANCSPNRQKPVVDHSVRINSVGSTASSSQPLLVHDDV
Data set [13] is described as follows: AUC in po dosed CD-1 mouse by LC-MS/MS analysis. It is filed as ADME, organism-based. As to conditions: plasma.
The subject of data set [14] is Mus musculus. Nature of the data set: Toxicity in human MV4-11 cells xenografted in SCID mouse assessed as change in body weight at 0.3 to 30 mg/kg foe 2 weeks. In kind it is organism-based. Details: dose 0.3-30 mg/kg. As to conditions: in vivo, 336 h.
In a further data set the target is Cytochrome P450 2C9 (Homo sapiens, UniProt P11712). Nature of the data set: Inhibition of CYP2C9. In kind it is ADME.
Sequence of Cytochrome P450 2C9 (P11712 whole entry): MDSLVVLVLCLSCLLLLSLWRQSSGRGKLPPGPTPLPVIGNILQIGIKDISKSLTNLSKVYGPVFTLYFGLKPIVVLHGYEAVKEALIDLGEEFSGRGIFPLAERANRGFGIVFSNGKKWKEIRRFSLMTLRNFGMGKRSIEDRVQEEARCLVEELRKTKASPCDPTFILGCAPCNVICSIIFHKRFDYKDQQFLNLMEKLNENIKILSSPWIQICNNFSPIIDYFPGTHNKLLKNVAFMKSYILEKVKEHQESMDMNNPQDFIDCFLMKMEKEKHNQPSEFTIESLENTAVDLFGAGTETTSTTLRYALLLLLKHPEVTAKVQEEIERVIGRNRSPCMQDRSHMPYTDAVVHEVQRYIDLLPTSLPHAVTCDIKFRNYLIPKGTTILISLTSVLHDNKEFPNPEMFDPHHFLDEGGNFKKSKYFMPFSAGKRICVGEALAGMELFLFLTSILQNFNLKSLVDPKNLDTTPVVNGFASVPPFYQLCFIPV
For data set [15], the target named is T5, Cytochrome P450 2D6 (Homo sapiens, UniProt P10635). The data set can be described thus: Induction of CYP2D6 at 3 to 30 uM. In kind it is ADME.
T5 sequence (P10635 whole entry): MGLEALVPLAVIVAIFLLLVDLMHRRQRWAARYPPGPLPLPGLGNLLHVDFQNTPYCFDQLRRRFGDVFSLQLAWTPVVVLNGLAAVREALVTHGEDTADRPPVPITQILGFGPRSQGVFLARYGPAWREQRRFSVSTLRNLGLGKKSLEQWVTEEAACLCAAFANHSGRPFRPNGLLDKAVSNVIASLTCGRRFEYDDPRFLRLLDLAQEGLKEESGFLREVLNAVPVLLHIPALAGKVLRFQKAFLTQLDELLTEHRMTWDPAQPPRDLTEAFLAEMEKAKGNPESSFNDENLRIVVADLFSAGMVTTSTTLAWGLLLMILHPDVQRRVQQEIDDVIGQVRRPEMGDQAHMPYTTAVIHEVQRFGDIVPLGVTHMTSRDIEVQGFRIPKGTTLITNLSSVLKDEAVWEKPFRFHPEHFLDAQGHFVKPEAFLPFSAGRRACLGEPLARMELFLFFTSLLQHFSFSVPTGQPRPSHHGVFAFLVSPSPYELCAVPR
Data set [16] can be described thus: Antitumor activity against mouse M-NFS-60 cells xenografted in CD-1 nude mouse assessed as inhibition of tumor growth at 30 mg/kg, po measured after 4 of tumor implantation. In kind it is functional. As to conditions: read-out: TGI.
Data set [17] deals with T5, Cytochrome P450 2D6. The data set can be described thus: Inhibition of CYP2D6. In kind it is ADME.
In data set [18] the test system is Rattus norvegicus. Nature of the data set: Toxicity in rat at 200 mg/kg administered for 7 days. It is filed as organism-based. More on the design: dose 200 mg/kg. The following applies: in vivo, 168 h.
The target in data set [19] is T4, Mast/stem cell growth factor receptor Kit. Nature of the data set: Binding affinity to KIT expressed in HEK-293 cells. In kind it is cell-based, HEK293.
For data set [20], the target named is T6, Cytochrome P450 1A2 (Homo sapiens, UniProt P05177).
T6 sequence (P05177 whole entry): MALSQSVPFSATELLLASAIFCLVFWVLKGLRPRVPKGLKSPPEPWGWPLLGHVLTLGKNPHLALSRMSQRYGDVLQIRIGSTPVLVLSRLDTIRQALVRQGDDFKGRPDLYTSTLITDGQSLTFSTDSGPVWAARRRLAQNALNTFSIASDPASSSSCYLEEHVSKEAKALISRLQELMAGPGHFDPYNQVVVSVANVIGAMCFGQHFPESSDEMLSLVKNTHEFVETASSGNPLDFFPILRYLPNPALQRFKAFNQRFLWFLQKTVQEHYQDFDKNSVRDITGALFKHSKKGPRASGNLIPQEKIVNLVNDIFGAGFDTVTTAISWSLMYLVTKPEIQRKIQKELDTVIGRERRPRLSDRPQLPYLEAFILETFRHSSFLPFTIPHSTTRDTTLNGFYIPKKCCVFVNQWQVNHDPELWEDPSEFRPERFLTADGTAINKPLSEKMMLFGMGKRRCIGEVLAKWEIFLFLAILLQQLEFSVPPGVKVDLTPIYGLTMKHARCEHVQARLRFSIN
Nature of the data set: Induction of CYP1A2 at 3 to 30 uM. In kind it is ADME.

Data set [21] deals with T3, Receptor-type tyrosine-protein kinase FLT3. Nature of the data set: Binding affinity to FLT3 expressed in HEK-293 cells after 1 hr. It is filed as cell-based, HEK293.
The nature of data set [22]: as §2. In kind it is ADME, organism-based. Details: dose 10 mg/kg, route oral. As to conditions: Sprague-Dawley, plasma.
The subject of data set [23] is Rattus norvegicus. The data set can be described thus: Toxicity in rat assessed as mortality at 800 mg/kg administered for 7 days. Details: dose 800 mg/kg. The following applies: in vivo, 168 h. It is filed as organism-based.
The nature of data set [24]: Antitumor activity against mouse M-NFS-60 cells xenografted in CD-1 nude mouse assessed as inhibition of tumor growth at 10 mg/kg, po measured after 4 of tumor implantation. The following applies: read-out: TGI. In kind it is functional.
Data set [25] in a line: Clearance in Sprague-Dawley rat plasma at 1 mg/kg, iv and 10 mg/kg, po by LC-MS/MS analysis. It is filed as ADME, organism-based.
A further data set deals with Cytochrome P450 3A4 (Homo sapiens, UniProt P08684). The data set can be described thus: Induction of CYP3A4 at 3 to 30 uM. It is filed as ADME.
Sequence of Cytochrome P450 3A4 (P08684 whole entry): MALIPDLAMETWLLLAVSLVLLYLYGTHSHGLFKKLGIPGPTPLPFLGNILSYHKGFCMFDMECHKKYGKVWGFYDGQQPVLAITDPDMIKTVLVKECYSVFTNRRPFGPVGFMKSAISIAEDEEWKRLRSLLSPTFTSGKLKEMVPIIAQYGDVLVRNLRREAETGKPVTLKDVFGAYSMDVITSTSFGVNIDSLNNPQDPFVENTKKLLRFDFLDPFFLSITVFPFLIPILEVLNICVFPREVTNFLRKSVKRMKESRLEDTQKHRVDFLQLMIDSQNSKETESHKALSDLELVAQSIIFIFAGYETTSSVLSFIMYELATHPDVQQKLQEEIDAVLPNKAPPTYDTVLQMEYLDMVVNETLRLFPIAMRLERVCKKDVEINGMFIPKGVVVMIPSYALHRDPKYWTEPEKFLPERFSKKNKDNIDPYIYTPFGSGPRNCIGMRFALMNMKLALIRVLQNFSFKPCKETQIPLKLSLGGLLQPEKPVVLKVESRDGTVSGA
Data set [26] has as its target T6, Cytochrome P450 1A2. The data set can be described thus: Inhibition of CYP1A2. It is filed as ADME.
The target in data set [27] is Platelet-derived growth factor receptor alpha (Homo sapiens, UniProt P16234). The data set can be described thus: Binding affinity to PDGFRalpha expressed in HEK-293 cells. It is filed as cell-based, HEK293.

What is called AUC is the area under the concentration-time curve, a measure of exposure. A high value points to high exposure. By pIC50 is commonly meant the negative decadic logarithm of the IC50, by convention in mol/L. Higher therefore signals a small IC50. A word on the bioavailability: it is the share of a dose that reaches the circulation, judged against a reference dose that is usually intravenous. The low end stands for poor availability, the high end for good availability. What is called pKd is −log10 of the Kd, conventionally taken in molar units. Higher therefore signals a small Kd.

pIC50, pKd: −log10 of the molar value.

`CC(C)(C)c1cc(NC(=O)Nc2ccc(NC(=O)c3ccc(OC4CCNCC4)cn3)cc2)no1` displayed a F with Rattus norvegicus [1] of 1%. The same compound displayed an area under the curve (AUC) in the data set on Rattus norvegicus [2] of 1.6 µM·h.
As to `CCN1C(C)(C)CC(Oc2ccc(C(=O)Nc3ccc(NC(=O)Nc4cc(C(C)(C)C)on4)cc3)nc2)CC1(C)C`, the pIC50 in data set [3] is 8.11; against Cytochrome P450 2C19, under 4.40; in [6], 8.70; in data set [9], 7.98; in [12] it was 8.92; at Cytochrome P450 2C9, under 4.40. The negative-log IC50 (pIC50) on Cytochrome P450 2D6 [17] and against Cytochrome P450 1A2 [26] was under 4.40 each time. The bioavailability in data set [4] turned out to be 44%. Further, the pKd in [5] is 8.80; in data set [7] it was 9.00; in data set [19], 9.00; in data set [21] it was 9.30; in data set [27], 8.89. Besides, the inhibition in vivo at 3 mg/kg in data set [8] amounted to 29%. Further, the Activity entry in the data set on Rattus norvegicus [10] is “Toxic”; in the data set with Mus musculus [11], “Non-toxic”; with Mus musculus [14], “Non-toxic”; at Cytochrome P450 2D6 [15] it was “Not Active”; with Rattus norvegicus [18], “Non-toxic”; on Cytochrome P450 1A2 [20] it was “Not Active”. In addition, the Activity result with Rattus norvegicus [23] is reported as “Non-toxic”; on Cytochrome P450 3A4, “Not Active”. The AUC in data set [13] came out at 56.4 µM·h; in [22], 10 µM·h. Further, the inhibition in vivo at 30 mg/kg in [16] stood at 79%. The inhibition in vivo at 10 mg/kg in data set [24] is 54%. In [25], this compound had a clearance of 14 mL/min/kg.
